Consider 23 compounds from PubChem BioAssay AID256 (DTP/NCI, 2004).

Where “and” joins values, the source holds several entries; their conditions need not be identical. Equal entries are not always repeated. Toxic doses and inconclusive results are not listed.

This test concerns CD2F1 mice, L1210 leukemia ip, survival T/C. In words: NCI In Vivo Anticancer Drug Screen. Data for tumor model L1210 Leukemia (intraperitoneal) in CD2F1 (CDF1) mice. Particulars: higher = longer survival. The procedure, abridged:
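Each value reflects a quotient of treated over vehicle control outcomes in mice with a transplanted tumor.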

[1] abbreviates: endpoint: mean survival time, dose: 75.0 mg/kg/injection, schedule: Q01DX001 (ip), vehicle: saline.
Where [2] appears, read: endpoint: mean survival time, dose: 150.0 mg/kg/injection, schedule: Q01DX001 (ip), vehicle: saline.
The mark [3] stands for this setting: endpoint: mean survival time, dose: 100.0 mg/kg/injection, schedule: Q04DX003 (ip), vehicle: saline with Tween-80.
The mark [4] stands for this setting: endpoint: mean survival time, dose: 200.0 mg/kg/injection, schedule: Q04DX003 (ip), vehicle: saline with Tween-80.
[5] abbreviates: endpoint: mean survival time, dose: 400.0 mg/kg/injection, schedule: Q04DX003 (ip), vehicle: saline with Tween-80.
Where [6] appears, read: endpoint: mean survival time, dose: 50.0 mg/kg/injection, schedule: Q01DX009 (ip), vehicle: saline with Tween-80.
The mark [7] stands for this setting: endpoint: mean survival time, dose: 100.0 mg/kg/injection, schedule: Q01DX009 (ip), vehicle: saline with Tween-80.
The mark [8] stands for this setting: endpoint: mean survival time, dose: 200.0 mg/kg/injection, schedule: Q01DX009 (ip), vehicle: saline with Tween-80.
Setting [9] is: endpoint: mean survival time, dose: 100.0 mg/kg/injection, schedule: Q04DX002 (ip), vehicle: saline with Tween-80.

On to `C[N+](C)(CCCCCC[N+](C)(C)Cc1ccccc1)Cc1ccccc1`, for which the T/C runs as follows: (endpoint: mean survival time, dose: 1.25 mg/kg/injection, schedule: Q01DX009 (ip), vehicle: saline with Tween-80) 93 % of control; (endpoint: mean survival time, dose: 2.5 mg/kg/injection, schedule: Q01DX009 (ip), vehicle: saline with Tween-80) 93 % of control; (endpoint: mean survival time, dose: 5.0 mg/kg/injection, schedule: Q01DX009 (ip), vehicle: saline with Tween-80) 93 % of control; (endpoint: median survival time, dose: 0.63 mg/kg/injection, schedule: Q04DX002 (ip), vehicle: saline with Tween-80) 112 % of control; (endpoint: median survival time, dose: 1.25 mg/kg/injection, schedule: Q04DX002 (ip), vehicle: saline with Tween-80) 100 % of control; (endpoint: median survival time, dose: 2.5 mg/kg/injection, schedule: Q04DX002 (ip), vehicle: saline with Tween-80) 100 % of control. The T/C (endpoint: median survival time, dose: 5.0 mg/kg/injection, schedule: Q04DX002 (ip), vehicle: saline with Tween-80) is 100 % of control.

In the case of `COc1cc2c(cc1OC)C13CCN4CC5=CCOC(CC(=O)O)C(C5CC41)C3N2` (centres undefined), the T/C is, setting by setting: (endpoint: mean survival time, dose: 75.0 mg/kg/injection, schedule: Q01DX001 (ip), vehicle: other) 98 % of control; under setting [1], 101 % of control; under setting [2], 97 % of control.

Regarding `CC(=O)Nc1nc(Br)c2ccccc2c1-c1ccc(N(CCCl)CCCl)cc1`, the T/C (endpoint: mean survival time, dose: 3.13 mg/kg/injection, schedule: Q04DX003 (ip), vehicle: DMSO) was 104 % of control; the T/C (endpoint: mean survival time, dose: 6.25 mg/kg/injection, schedule: Q04DX003 (ip), vehicle: DMSO) was 102 % of control; the T/C (endpoint: mean survival time, dose: 12.5 mg/kg/injection, schedule: Q04DX003 (ip), vehicle: DMSO) was 101 % of control; the T/C (endpoint: mean survival time, dose: 25.0 mg/kg/injection, schedule: Q04DX003 (ip), vehicle: DMSO) was 98 % of control.

With `COC(=O)CCC(C)(c1ccc(O)cc1)c1ccc(O)cc1`, the T/C under setting [3] is 103 % of control, the T/C under setting [4] is 97 % of control and the T/C under setting [5] was 91 % of control.

In the case of `CC12c3ccccc3C(c3ccccc31)C1C(=O)OC(=O)C12` (centres undefined), the T/C by setting is: under setting [6], 95 % of control; under setting [7], 103 % of control.

As to `O=C(SCCNCCNC1CC2CCC1C2)c1ccccc1` (centres undefined), the T/C (endpoint: mean survival time, dose: 9.4 mg/kg/injection, schedule: Q01DX009 (ip), vehicle: saline with Tween-80) is 98 % of control; the T/C (endpoint: mean survival time, dose: 9.4 mg/kg/injection, schedule: Q04DX003 (ip), vehicle: saline with Tween-80) is 95 % of control; the T/C (endpoint: mean survival time, dose: 18.8 mg/kg/injection, schedule: Q01DX001 (ip), vehicle: saline) is 97 % of control; the T/C (endpoint: mean survival time, dose: 18.8 mg/kg/injection, schedule: Q01DX009 (ip), vehicle: saline with Tween-80) is 97 % of control; the T/C (endpoint: mean survival time, dose: 18.8 mg/kg/injection, schedule: Q04DX003 (ip), vehicle: saline with Tween-80) is 92 % of control; the T/C (endpoint: mean survival time, dose: 37.5 mg/kg/injection, schedule: Q01DX001 (ip), vehicle: saline) was 100 % of control. The T/C (endpoint: mean survival time, dose: 37.5 mg/kg/injection, schedule: Q01DX009 (ip), vehicle: saline with Tween-80) was 97 % of control and the T/C (endpoint: mean survival time, dose: 37.5 mg/kg/injection, schedule: Q04DX003 (ip), vehicle: saline with Tween-80) was 95 % of control.

Take `CN=C(NC)c1ccc(NC(=O)c2ccc(C(=O)Nc3ccc(C(=NC)NC)cc3)c(N)c2)cc1`: the T/C was 176 % of control (endpoint: mean survival time, dose: 2.25 mg/kg/injection, schedule: Q01DX Z (ip), vehicle: water) and 176 % of control (endpoint: mean survival time, dose: 4.5 mg/kg/injection, schedule: Q01DX Z (ip), vehicle: water).

Turning to `C[Si](C)(C)Oc1ccc(O[Si](C)(C)C)cc1`, the T/C reads like this: (endpoint: mean survival time, dose: 100.0 mg/kg/injection, schedule: Q04DX003 (ip), vehicle: other) 109 % of control; (endpoint: mean survival time, dose: 200.0 mg/kg/injection, schedule: Q04DX003 (ip), vehicle: other) 97 % of control; (endpoint: mean survival time, dose: 400.0 mg/kg/injection, schedule: Q04DX003 (ip), vehicle: other) 106 % of control.

Regarding `CCCCCC(O)CCCC` (centres undefined), the T/C reads like this: under setting [6], 91 % of control; under setting [7], 100 % of control; under setting [8], 106 % of control.

In the case of `C/C(=C\c1ccc(Cl)c(Cl)c1)[N+](=O)[O-]`, the T/C reads like this: (endpoint: mean survival time, dose: 100.0 mg/kg/injection, schedule: Q01DX001 (ip), vehicle: saline) 104 % of control; (endpoint: mean survival time, dose: 200.0 mg/kg/injection, schedule: Q01DX001 (ip), vehicle: saline) 109 % of control; (endpoint: mean survival time, dose: 400.0 mg/kg/injection, schedule: Q01DX001 (ip), vehicle: saline) 111 % of control.

With `c1ccc(C(c2ccccc2)n2ccnc2)cc1`, the T/C under setting [1] was 100 % of control and the T/C under setting [2] was 101 % of control.

On to `O=C(CCl)c1ccc(O)c(O)c1`, for which the T/C is, setting by setting: (endpoint: mean survival time, dose: 6.25 mg/kg/injection, schedule: Q04DX003 (ip), vehicle: saline) 94 % of control; (endpoint: mean survival time, dose: 12.5 mg/kg/injection, schedule: Q04DX003 (ip), vehicle: saline) 92 % of control; (endpoint: mean survival time, dose: 25.0 mg/kg/injection, schedule: Q04DX003 (ip), vehicle: saline) 92 % of control.

For the compound `CS(=O)(=O)N1C(=O)c2ccccc2C1=O`, the T/C (endpoint: mean survival time, dose: 25.0 mg/kg/injection, schedule: Q04DX002 (ip), vehicle: saline with Tween-80) was 101 % of control; the T/C (endpoint: mean survival time, dose: 50.0 mg/kg/injection, schedule: Q04DX002 (ip), vehicle: saline with Tween-80) was 98 % of control; the T/C under setting [9] is 93 % of control.

Regarding `c1cncc(-c2nc3ccccc3s2)c1`, the T/C was 103 % of control (endpoint: mean survival time, dose: 100.0 mg/kg/injection, schedule: Q04DX003 (ip), vehicle: Klucel (hydroxypropylcellulose) (HPC)); 100 % of control (endpoint: mean survival time, dose: 200.0 mg/kg/injection, schedule: Q04DX003 (ip), vehicle: Klucel (hydroxypropylcellulose) (HPC)); 100 % of control (endpoint: mean survival time, dose: 400.0 mg/kg/injection, schedule: Q04DX003 (ip), vehicle: Klucel (hydroxypropylcellulose) (HPC)).

Regarding `CC(=O)Nc1c(F)c(F)c(F)c(F)c1F`, the T/C is, setting by setting: (endpoint: mean survival time, dose: 100.0 mg/kg/injection, schedule: Q01DX001 (ip), vehicle: saline with Tween-80) 102 % of control; (endpoint: mean survival time, dose: 200.0 mg/kg/injection, schedule: Q01DX001 (ip), vehicle: saline with Tween-80) 95 % of control; (endpoint: mean survival time, dose: 400.0 mg/kg/injection, schedule: Q01DX001 (ip), vehicle: saline with Tween-80) 94 % of control.

Take `O=C(COc1ccc(Br)cc1)Nc1cc(Cl)ccc1Cl`: the T/C under setting [9] is 87 % of control; the T/C (endpoint: mean survival time, dose: 200.0 mg/kg/injection, schedule: Q04DX002 (ip), vehicle: saline with Tween-80) was 95 % of control; the T/C (endpoint: mean survival time, dose: 400.0 mg/kg/injection, schedule: Q04DX002 (ip), vehicle: saline with Tween-80) was 91 % of control.

For `NC(=S)Nc1ccc(C23CCC(CC2)CC3)cc1`, the T/C is 101 % of control under setting [6], 101 % of control under setting [7] and 109 % of control under setting [8].

Turning to `COC(=O)c1cc2ccccc2o1`, the T/C under setting [7] is 100 % of control; the T/C under setting [3] was 108 % of control; the T/C under setting [8] is 100 % of control; the T/C under setting [4] was 108 % of control; the T/C (endpoint: mean survival time, dose: 400.0 mg/kg/injection, schedule: Q01DX009 (ip), vehicle: saline with Tween-80) is 105 % of control; the T/C under setting [5] was 94 % of control.

Take `O=C1C(c2ccccc2)=C2C(=C1c1ccccc1)c1cccc3cccc2c13`: the T/C is 92 % of control under setting [3], 90 % of control under setting [4] and 92 % of control under setting [5].

With `CCCN(CCC)N=Nc1ccccc1`, the T/C reads like this: under setting [1], 104 % of control; under setting [2], 101 % of control.

In the case of `CCCCCCCCCCCCCCCC(CCCCCC)CCCCCC`, the T/C by setting is: (endpoint: mean survival time, dose: 100.0 mg/kg/injection, schedule: Q01DX001 (ip), vehicle: saline sonified) 102 % of control; (endpoint: mean survival time, dose: 200.0 mg/kg/injection, schedule: Q01DX001 (ip), vehicle: saline sonified) 98 % of control; (endpoint: mean survival time, dose: 400.0 mg/kg/injection, schedule: Q01DX001 (ip), vehicle: saline sonified) 102 % of control.

Turning to `O=C(O)c1ccc(C(=O)O)o1.[NH-]C1CCCCC1[NH-].[Pt+2]`, the T/C (endpoint: mean survival time, dose: 1.25 mg/kg/injection, schedule: Q04DX003 (ip), vehicle: dextrose) is 122 % of control and 102 % of control; the T/C (endpoint: mean survival time, dose: 2.5 mg/kg/injection, schedule: Q04DX003 (ip), vehicle: dextrose) was 111 % of control and 112 % of control; the T/C (endpoint: mean survival time, dose: 5.0 mg/kg/injection, schedule: Q04DX003 (ip), vehicle: dextrose) was 117 % of control; the T/C (endpoint: mean survival time, dose: 20.0 mg/kg/injection, schedule: Q04DX003 (ip), vehicle: dextrose) was 183 % of control; the T/C (endpoint: mean survival time, dose: 40.0 mg/kg/injection, schedule: Q04DX003 (ip), vehicle: dextrose) is 94 % of control.

`COC(=O)/C=C/N(CCF)CCF`: the T/C runs as follows: (endpoint: mean survival time, dose: 1.0 mg/kg/injection, schedule: Q01DX Z (ip), vehicle: saline) 94 % of control; (endpoint: mean survival time, dose: 3.0 mg/kg/injection, schedule: Q01DX Z (ip), vehicle: saline) 108 % of control.
